{"source": "patent EP4591860A1", "about": "“OPHTHALMIC PHARMACEUTICAL COMPOSITION FOR THE PREVENTION AND TREATMENT OF DRY EYE SYNDROME” (FB Vision S.p.A., priority 2024, dated 2025)", "format_in_all_cases": "cell-based, human", "key": {"HCEC cells": {"tested_on": "HCEC cells", "experiment": "MTT cell viability assay", "method": "The primary culture of HCEC (cat. PCS-700-010) was purchased from the American Type Culture Collection (ATCC), Manassas, VA, USA.\nThe cells were resuspended in basal medium for corneal epithelial cells (devoid of serum and calcium) and supplemented with a growth kit provided by ATCC.\nThe cells were seeded at a density of 8 × 10^3 cells/well in a 96-well plate and cultured overnight. The cells were then treated with PGB or HA at different concentrations for 24 hours or with empty medium (control). After gently washing them with PBS, the cells were incubated with 0.5 mg/ml MTT solution in the dark for 4 hours. After removing the supernatant, DMSO was added to solubilize the formazan. Absorbance at 570 nm was measured with an ELISA reader (Multiskan MK3) for cell viability."}, "NF-kβ p65": {"tested_on": "NF-kβ p65", "experiment": "NF-kβ p65 DNA binding activity test (TransAM ELISA) in LPS-stimulated HCEC", "conditions": "500 ng/ml LPS, 12 hours; PGB 100 µg/ml, HA 100 µg/ml or combination", "method": "To evaluate the ability of the synergistic composition of the invention to inhibit NF-kβ activity in corneal cells, the NF-kβ p65 DNA Binging activity test was used with the ELISA kit of the TransAM p65 transcription factor (Active Motif, Carlsbad, CA).\nHCEC cells were stimulated with 500 ng/ml LPS in the presence and absence of PGB 100 µg/ml, HA 100 µg/ml or a combination of PGB+HA for 12 hours, as described here.\nSubsequently, the DNA binding activity of NF-kβ p65 was determined. 12 hours after stimulation with LPS markedly promoted the DNA-binding activity of NF-kβ p65 and the expression of the pro-inflammatory cytokines IL-1β, IL-6 and TNF-α."}, "IL-1β": {"tested_on": "IL-1β", "experiment": "LPS-stimulated cytokine secretion in HCEC (ELISA)", "conditions": "500 ng/mL LPS 24-hour; preincubation 1h; 100 µg/ml each, combination in 1/1 ratio", "method": "(§1) IL-1b, IL-6 and TNF-a were detected with ELISA kits purchased from Abcam, Cambridge (MA) USA. Data are expressed as mean ± SEM, n=4; *p<0.001 with respect to LPS, **p<0.001 with respect to PGB or HA alone.\n(§2) 24-hour exposure of HCECs to 500 ng/mL LPS induced maximal secretion of IL-1β, IL-6, and TNF-α, all of which are released in small amounts under basal conditions, as shown in Figure 22."}, "IL-6": {"tested_on": "IL-6", "experiment": "LPS-stimulated cytokine secretion in HCEC (ELISA)", "conditions": "500 ng/mL LPS 24-hour; preincubation 1h; 100 µg/ml each, combination in 1/1 ratio", "method": "as §1, §2"}, "TNF-α": {"tested_on": "TNF-α", "experiment": "LPS-stimulated cytokine secretion in HCEC (ELISA)", "conditions": "500 ng/mL LPS 24-hour; preincubation 1h; 100 µg/ml each, combination in 1/1 ratio", "method": "as §1, §2"}}, "note": "“Also recorded” adds a separate entry of the source.", "data": [{"smiles": "CC(C)C[C@H](CN)CC(=O)O", "note": "[PGB, (S)-3-(aminomethyl)-5-methylhexanoic acid]", "values": [{"measurement": "cell viability (MTT)", "setting": "HCEC cells; 24 hours, 1000 µg/ml", "result": "a certain reduction in cell viability"}, {"measurement": "cell viability (MTT), toxicity", "setting": "HCEC cells; 24 hours, 10, 50, 100, 200 µg/ml", "result": "no evidence of toxicity; also recorded: did not show toxicity"}, {"measurement": "DNA-binding activity of NF-kβ p65", "setting": "NF-kβ p65", "result": "lower DNA-binding activity"}, {"measurement": "LPS-stimulated secretion of IL-1β", "setting": "IL-1β", "result": "significantly reduced"}, {"measurement": "LPS-stimulated secretion of IL-6", "setting": "IL-6", "result": "significantly reduced"}, {"measurement": "LPS-stimulated secretion of TNF-α", "setting": "TNF-α", "result": "significantly reduced"}]}]}
